Experiments:
[1] = Half life in human liver microsomes; assay type: ADME, Microsome
[2] = Permeability of the compound in human Caco2 cells; assay type: ADME, cell-based; settings: Caco-2, read-out: permeability
Hepatitis C virus = experiment: Antiviral activity against Hepatitis C virus infected in human […] cells after 72 hrs by luciferase reporter gene assay; assay type: functional, organism-based, Hepacivirus hominis
[3] = Inhibition of Hepatitis C virus genotype 1 NS3 protease

| Compound | half-life [1] [h] | Papp [2] [nm/s] | EC50 (Hepatitis C virus) [µM] | IC50 [3] [µM] | Ki [3] [µM] |
| --- | --- | --- | --- | --- | --- |
| C=C[C@@H]1C[C@]1(NC(=O)[C@@H]1C[C@@H](n2cnc(-c3ccccc3)c2)CN1C(=O)[C@@H](NC(=O)OC1CCCC1)C(C)(C)C)C(=O)NS(=O)(=O)C1CC1 | 3.68 | 2 | 1.34 | 0.0018 |  |
| C=C[C@@H]1C[C@]1(NC(=O)[C@@H]1C[C@@H](n2cc(-c3ccccc3)c(C)n2)CN1C(=O)[C@@H](NC(=O)OC1CCCC1)C(C)(C)C)C(=O)NS(=O)(=O)C1CC1 | 0.1 | 7 | 0.32 | 0.0025 |  |
| C=C[C@@H]1C[C@]1(NC(=O)[C@@H]1C[C@@H](c2nc(-c3ccccc3)cs2)CN1C(=O)[C@@H](NC(=O)OC1CCCC1)C(C)(C)C)C(=O)NS(=O)(=O)C1CC1 | 2.38 | 44 | 0.58 | 0.0032 |  |
| C=C[C@@H]1C[C@]1(NC(=O)[C@@H]1C[C@@H](c2csc(-c3ccccc3)n2)CN1C(=O)[C@@H](NC(=O)OC1CCCC1)C(C)(C)C)C(=O)NS(=O)(=O)C1CC1 | 2.25 | 46 | 0.175 | 0.0027 |  |
| C=C[C@@H]1C[C@]1(NC(=O)[C@@H]1C[C@@H](c2csc(-c3cccnc3)n2)CN1C(=O)[C@@H](NC(=O)OC1CCCC1)C(C)(C)C)C(=O)NS(=O)(=O)C1CC1 |  |  | 0.915 | 0.012 |  |
| C=C[C@@H]1C[C@]1(NC(=O)[C@@H]1C[C@@H](c2csc(-c3ccc(OC)cc3)n2)CN1C(=O)[C@@H](NC(=O)OC1CCCC1)C(C)(C)C)C(=O)NS(=O)(=O)C1CC1 |  |  | 0.53 | 0.0052 |  |
| C=C[C@@H]1C[C@]1(NC(=O)[C@@H]1C[C@@H](c2csc(-c3cccc(OC)c3)n2)CN1C(=O)[C@@H](NC(=O)OC1CCCC1)C(C)(C)C)C(=O)NS(=O)(=O)C1CC1 |  |  | 0.14 | 0.0034 |  |
| C=C[C@@H]1C[C@]1(NC(=O)[C@@H]1C[C@@H](c2csc(-c3ccccc3OC)n2)CN1C(=O)[C@@H](NC(=O)OC1CCCC1)C(C)(C)C)C(=O)NS(=O)(=O)C1CC1 |  |  | 0.035 | 0.00074 |  |
| C=C[C@@H]1C[C@]1(NC(=O)[C@@H]1C[C@@H](c2csc(-c3ccccc3OCC)n2)CN1C(=O)[C@@H](NC(=O)OC1CCCC1)C(C)(C)C)C(=O)NS(=O)(=O)C1CC1 |  |  | 0.037 | 0.00078 |  |
| C=C[C@@H]1C[C@]1(NC(=O)[C@@H]1C[C@@H](c2csc(-c3ccccc3C)n2)CN1C(=O)[C@@H](NC(=O)OC1CCCC1)C(C)(C)C)C(=O)NS(=O)(=O)C1CC1 |  |  | 0.8 | 0.006 |  |
| C=C[C@@H]1C[C@]1(NC(=O)[C@@H]1C[C@@H](c2csc(-c3ccccc3F)n2)CN1C(=O)[C@@H](NC(=O)OC1CCCC1)C(C)(C)C)C(=O)NS(=O)(=O)C1CC1 |  |  | 0.235 | 0.0018 |  |
| C=C[C@@H]1C[C@]1(NC(=O)[C@@H]1C[C@@H](c2csc(-c3cccc(OC)c3OC)n2)CN1C(=O)[C@@H](NC(=O)OC1CCCC1)C(C)(C)C)C(=O)NS(=O)(=O)C1CC1 |  |  | 0.24 | 0.0041 |  |
| C=C[C@@H]1C[C@]1(NC(=O)[C@@H]1C[C@@H](c2csc(-c3ccc(OC)cc3OC)n2)CN1C(=O)[C@@H](NC(=O)OC1CCCC1)C(C)(C)C)C(=O)NS(=O)(=O)C1CC1 |  |  | 0.089 | 0.0022 |  |
| C=C[C@@H]1C[C@]1(NC(=O)[C@@H]1C[C@@H](c2csc(-c3c(OC)cccc3OC)n2)CN1C(=O)[C@@H](NC(=O)OC1CCCC1)C(C)(C)C)C(=O)NS(=O)(=O)C1CC1 |  |  | 2.2 | 0.017 |  |
| C=C[C@@H]1C[C@]1(NC(=O)[C@@H]1C[C@@H](c2csc(-c3cc(OC)ccc3OC)n2)CN1C(=O)[C@@H](NC(=O)OC1CCCC1)C(C)(C)C)C(=O)NS(=O)(=O)C1CC1 | 1.15 | 70 | 0.016 | 0.0009 | 0.00023 |
| C=C[C@@H]1C[C@]1(NC(=O)[C@@H]1C[C@@H](c2csc(-c3cc(C)ccc3OC)n2)CN1C(=O)[C@@H](NC(=O)OC1CCCC1)C(C)(C)C)C(=O)NS(=O)(=O)C1CC1 |  |  | 0.027 | 0.0017 |  |
| C=C[C@@H]1C[C@]1(NC(=O)[C@@H]1C[C@@H](c2csc(-c3cc(F)ccc3OC)n2)CN1C(=O)[C@@H](NC(=O)OC1CCCC1)C(C)(C)C)C(=O)NS(=O)(=O)C1CC1 |  |  | 0.028 | 0.0011 |  |
| C=C[C@@H]1C[C@]1(NC(=O)[C@@H]1C[C@@H](c2csc(-c3cc(OC)ccc3OC)n2)CN1C(=O)[C@@H](NC(=O)OC1CCCC1)C(C)(C)C)C(=O)NS(=O)(=O)C1(C)CC1 | 0.95 | 120 | 0.009 | 0.0011 |  |
| C=C[C@@H]1C[C@]1(NC(=O)[C@@H]1C[C@@H](n2cc(-c3ccccc3)nn2)CN1C(=O)[C@@H](NC(=O)OC1CCCC1)C(C)(C)C)C(=O)NS(=O)(=O)C1CC1 | 1.57 | 11 | 0.43 | 0.0027 |  |

— ChEMBL document CHEMBL2401651, “Discovery of novel P2 substituted 4-biaryl proline inhibitors of hepatitis C virus NS3 serine protease” (Bioorg Med Chem Lett, 2013)
